{
  "source": "patent US6569640B1",
  "about": "“Method of fractionation of biologically-derived materials using critical fluids” (Aphios Corporation, priority 1993, dated 2003)",
  "tested_on": "Bacillus subtilis",
  "experiment": "Antimicrobial disk diffusion assay",
  "format": "cell-based",
  "settings": "disks containing 10 μg",
  "procedure": "Microbial extracts were tested for antimicrobial activity by a disk diffusion assay. Diffusion of the metabolites into the agar creates a zone of growth inhibition around the disk if the organism is susceptible to the antimicrobial metabolite. Ten to 20 μl amounts of extract or extract fractions were applied to Whatman 3MM filter paper disks 7 mm in diameter. The disks were dried under vacuum overnight to evaporate the solvent. Bioassays were carried out with the target organism Bacillus subtilis. The target organisms were grown in nutrient broth (Difco), and adjusted to an A600 of 0.1. One hundred μl of the cell suspension was applied to the surface of a nutrient agar plate and spread uniformly with a sterile spreader. After the liquid had absorbed into the agar, the disks were placed on the surface, about 1 cm apart. The plates were incubated at 25-30° C. for 24-36 hours. Antimicrobial activity was indicated by a zone of inhibition around a disk where bacterial growth was prevented. […] In addition, positive and negative control disks were utilized. For the negative control, a disk which received only methanol was run in each test. […] For the positive control, disks containing the antimicrobial gentamycin (10 μg) were used.",
  "data": [
    {"substance": "gentamycin", "values": [
      {"measurement": "zone of inhibition, positive control disk", "result": "showed zones of inhibition"}
    ]}
  ]
}
